“Also recorded” adds a separate entry of the source.
What was measured:
mice [1] = assay: Adjuvanticity in aqueous solution: antibody levels in mice after BSA plus adjuvant in saline (PHA, ABC); format: in vivo; details: for antibody ABC Day 14 / antibody ABC Day 28 / antibody PHA Day 14 / antibody PHA Day 28: primary response; for antibody ABC Day 34 / antibody ABC Day 36 / antibody PHA Day 34 / antibody PHA Day 36: secondary response (BSA recall day 30); for adjuvanticity in aqueous solution (antibody titer), in words: administered in saline with BSA, mice
Procedure: In these experiments, the antibody levels in mice are determined following the injection of various compositions. The injected compositions contain bovine serum albumin (BSA) as antigen and the adjuvant compound according to the invention. The mice used as controls received the BSA and lipopolysaccharides. The compositions are injected in solution in saline. The injected dose of BSA is 0.5 mg per mouse, the recall dose (30 days after the first injection) contains 0.1 mg of BSA. Each tested composition is administered to eight mice. At various time intervals following the injection, the mice are bled to check the antibody level.
The antibody estimation is made either by passive hemagglutination (PHA) using formalinized sheep red blood cells coated with the tested antigen, or according to the method taught by A. A. Hirata and M. W. Brandiss (J. Immunol., 100, 641-648, 1968), or by the so-called antigen binding capacity method as described by P. Minden and S. Farr (Handbook of Exp. Immunol., p. 463, Weir D. M. ed. Blackwell Scientific Pub., Oxford and Edinburgh, 1967). […]
The antibody estimation is made either by passive hemagglutination (PHA) using formalinized sheep red blood cells coated with the tested antigen, or according to method taught by A. A. Hirata and M. W. Brandiss (J. Immunol., 100, 641-648, 1968), or by the so-called antigen binding capacity method described by P. Minden and S. Farr (Handbook of Exp. Immunol., p. 463, Weir D. M. ed. Blackwell Scientific Pub., Oxford and Edinburgh, 1967).

mice [2] = assay: Reaction to influenza virus: adjuvanticity with influenza vaccine (hemagglutination inhibition); format: in vivo; details: vaccine + adjuvant compound versus vaccine only, vaccine recall after 30 days
Procedure: The adjuvanticity of the Mur-NAc-L-Ala-D-Glu-α-NH2 has been studied against the influenza vaccine on mice. The tested animals are injected with the vaccine and the adjuvant compound whereas controls only received the vaccine. Thirty days later, a recall containing only the vaccine is injected.
It is to be observed that the antibody level is much higher in animals which have received both vaccine and adjuvant compound than in controls. (The measure is made by hemagglutination inhibition following the method proposed by the World Health Organisation Comitee (1953).)

Swiss common stock mice = assay: Toxicity: lethal dose in mice, intravenous injection; format: in vivo; details: 300 μg, adrenalectomised mice
Procedure: The compound according to the invention has been compared with the lipopolysaccharide (LPS) prepared by the phenol-water procedure from S.enteriditis, with regard to their lethal doses (LD).
The method used to carry out these experiments is described by Chedid and al. in Ann. N.Y. Acad. Sci. 133:712, 1966. The tests are made on two month old Swiss common stock mice. The assayed products are administered by intravenous injections.
The compound according to the invention has been compared with the lipopolysaccharide (LPS) prepared by the phenol-water procedure from S.enteriditis with regard to their lethal dose (LD).
The method used to carry out these experiments is described by Chedid and al. in Ann. N.Y. Acad. Sci. 135:712, 1966. The tests are made on two month old Swiss common stock mice. The assayed products are administered by intravenous injection.

Hartley guinea pigs = details: for immunogenicity, in words: conclusion from skin tests in guinea pigs; for hypersensitivity reaction, in words: guinea pigs treated with FIA + compound
Procedure: For comparison, simultaneous tests were carried out with Freund's complete adjuvant (FCA).
Hartley guinea pigs weighing 350 g are skin-tested. […] Forty-eight hours after this second injection, the diameter of reaction is measured (in mm).
The estimation is made as previously described.

Hartley's guinea pigs = assay: Adjuvanticity with a water in oil emulsion (comparative assay), ovalbumin antigen; format: in vivo; details: 50 μg compound with FIA + ovalbumin
Procedure: As previously, the adjuvanticity is estimated from the increase of the antibody level following an antigen injection. In these experiments, ovalbumin is used as antigen. Assays are carried out on Hartley's guinea pigs weighing 350 g. The animals are injected with 0.1 ml in each posterior footpad. Each dose contains 1 mg ovalbumin and either the Freund's complete adjuvant (FCA) or the Freund's incomplete adjuvant (FIA) or this one with the compound of the invention (50 μg). The antibody titer is estimated 21 days after the injection, by passive hemagglutination as indicated above, or by precipitation according to Folin's method.
A skin test for delayed hypersensitivity is made 18 days after the injection on the same animals. They received 5 μg of ovalbumin by intradermal injection. 48 hours later, the diameter of reaction is measured (in mm).

[3] = 30 μg per mouse + BSA in saline
[4] = 100 μg per mouse + BSA in saline
[5] = 300 μg per mouse + BSA in saline

CC(=O)N[C@@H]1[C@@H](O[C@H](C)C(=O)N[C@@H](C)C(=O)N[C@H](CCC(=O)O)C(N)=O)[C@H](O)[C@@H](CO)O[C@H]1O [Mur-NAc-L-Ala-D-Glu-α-NH2, 2-(2-acetamido-2-deoxy-3-O-D-glucopyranosyl)-D-propionyl-L-alanyl-D-α-isoglutamine]
antibody ABC Day 14 (mice [1]; [3]): < 20
antibody ABC Day 28 (mice [1]; [3]): 75
antibody PHA Day 14 (mice [1]; [3]): 3
antibody PHA Day 28 (mice [1]; [3]): 25
antibody ABC Day 34 (mice [1]; [3]): 210
antibody ABC Day 36 (mice [1]; [3]): 400
antibody PHA Day 34 (mice [1]; [3]): 200
antibody PHA Day 36 (mice [1]; [3]): 800
antibody ABC Day 14 (mice [1]; [4]): < 20
antibody ABC Day 28 (mice [1]; [4]): 82
antibody PHA Day 14 (mice [1]; [4]): < 3
antibody PHA Day 28 (mice [1]; [4]): 25
antibody ABC Day 34 (mice [1]; [4]): 270
antibody ABC Day 36 (mice [1]; [4]): 520
antibody PHA Day 34 (mice [1]; [4]): 400
antibody PHA Day 36 (mice [1]; [4]): 2150
antibody ABC Day 14 (mice [1]; [5]): < 20
antibody ABC Day 28 (mice [1]; [5]): 50
antibody PHA Day 14 (mice [1]; [5]): < 3
antibody PHA Day 28 (mice [1]; [5]): 25
antibody ABC Day 34 (mice [1]; [5]): 230
antibody ABC Day 36 (mice [1]; [5]): 550
antibody PHA Day 34 (mice [1]; [5]): 200
antibody PHA Day 36 (mice [1]; [5]): 975
adjuvanticity in aqueous solution (antibody titer), in words (mice [1]): induces an enhancement of the antibody titer that can be compared with the one caused by injecting the LPS; also recorded: high antibody titers were observed
antibody level against influenza vaccine (hemagglutination inhibition), in words (mice [2]): much higher
survival after injection (Swiss common stock mice): All the mice survived
immunogenicity, in words (Hartley guinea pigs): not immunogenic
hypersensitivity reaction, in words (Hartley guinea pigs): no hypersensitivity reaction is observed

CC(=O)N[C@H]1C(O)O[C@H](CO)[C@@H](O)[C@@H]1O[C@H](C)C(=O)N[C@@H](C)C(=O)N[C@H](CCC(=O)O)C(=O)O (stereo partly drawn) [Mur-NAc-L-Ala-D-Glu(OH), 2-(2-acetamido-2-deoxy-3-O-D-glucopyranosyl)-D-propionyl-L-alanyl-D-glutamic acid]
antibody ABC Day 14 (mice [1]; [4]): < 20
antibody ABC Day 28 (mice [1]; [4]): 80
antibody PHA Day 14 (mice [1]; [4]): 3
antibody PHA Day 28 (mice [1]; [4]): 50
antibody ABC Day 34 (mice [1]; [4]): 320
antibody ABC Day 36 (mice [1]; [4]): 630
antibody PHA Day 34 (mice [1]; [4]): 400
antibody PHA Day 36 (mice [1]; [4]): 2,130
adjuvanticity in aqueous solution (antibody titer), in words (mice [1]): induces an enhancement of the antibody titer
antibody titer against ovalbumin, in words (Hartley's guinea pigs): does not induce an increase of the antibody titer
skin test reaction to ovalbumin (delayed hypersensitivity), in words (Hartley's guinea pigs; compared with FCA): light
survival after injection (Swiss common stock mice): All mice survived
immunogenicity, in words (Hartley guinea pigs): not immunogenic
hypersensitivity reaction, in words (Hartley guinea pigs): no hypersensitivity reaction is observed

Source: patent US4158052A, “Oil-free adjuvant compositions containing N-acetyl-muramyl-L-alanyl-D-isoglutamine” (priority 1975, dated 1979)
